Assay results as given in patent publication US11628179B2, “Compounds for treating and preventing extracellular histone mediated pathologies” (priority 2017, dated 2023).
“And” between values parts separate entries of the source, which are not always exact repeats. Equal entries are not always repeated. Structures can show the parent of a compound that is named as a salt. Where two headings read alike, the source gives them in different places.

What was measured:
[1] = Pharmacokinetics, intravenous bolus 100 mg/kg (plasma and urine); format: in vivo, rat
Method: A total of nine blood samples were collected from each rat at time points ranging from pre-dose to 192 hours post-dose. Urine samples were also collected over the first 48 hours. The resulting blood samples were processed to plasma. The urine and plasma samples were subsequently analysed for the concentration of mCBS (free-base) using LC-MS/MS based methods.

[2] = Pharmacokinetics, 5 hour intravenous infusion; format: in vivo, rat
Method: The pharmacokinetics (PK) of mCBS were studied following intravenous administration as an infusion over a 5 hours period to male Sprague Dawley rats. In this study the pharmacokinetics of the mCBS compound were investigated following intravenous infusion. The compound was formulated using Hartman's solution and administered to a group of n=3 rats at the rate of 25.3 mg/kg/h (total dose: 126.5 mg/kg; Group 1) and to a second group of n=3 rats at the rate of 50.6 mg/kg/h (total dose: 253 mg/kg; Group 2).
A total of six blood PK samples were collected from each rat at time points ranging from pre-dose to 5 hours after the start of the infusion. The resulting blood samples were processed to plasma, and subsequently analysed for the concentration of mCBS using an LC-MS/MS based method. Phoenix 64 WinNonlin® software was used to estimate area under the concentration versus time curve (AUC) values over the 0 to 5 h infusion interval. Values for concentration at steady state (Css) and clearance (Cl) were also estimated.

Sprague-Dawley rats = tested on: Sprague-Dawley rats
Method: The objective of these studies was to determine the toxicity of the test item, mCBS, when administered by continuous (24 hours/day) intravenous infusion through a surgically implanted catheter for 7 consecutive days to Sprague-Dawley rats.
The test and control item dose formulations of mCBS (in the form of the heptasodium salt mCBS.Na) were administered to groups of rats by continuous (24 hours/day) intravenous infusion for 7 consecutive days as described in the Table 14 below.
Parameters monitored during this study included mortality, clinical observations, body weights and food consumption. In addition, hematology, coagulation and clinical chemistry parameters were evaluated on Day 9. Blood samples were collected from the animals at timepoints relative to the start of the infusion for analysis of test item concentration in plasma. At termination (Day 9), all animals were euthanized and subjected to a gross necropsy examination. Organ weights were measured on selected organs and a selected list of tissues, including gross lesions, were retained and prepared for microscopic evaluation.

Beagle dogs [3] = tested on: Beagle dogs
Method: This study was also conducted inter alia to determine the maximum tolerated dose (MTD) of the test item, mCBS, when administered by continuous (24 hours/day) intravenous infusion through a surgically-implanted catheter for 48 hours per dose level for up to 4 dose levels to Beagle dogs.
mCBS dose formulations were administered to Beagle dogs by continuous (24 hours/day) intravenous infusion for 48 hours per dose level for up to 4 dose levels, as described in the Table 15 below.
Parameters monitored during this phase of the study included mortality, clinical observations, body weights, and food consumption. Serial blood samples were collected from each animal to confirm mCBS plasma levels at the following time points: 24 and 48 hours post start of infusion of each dose level. Blood samples were also collected from each animal for clinical pathology evaluations (hematology, coagulation, and clinical chemistry) on Day 1, prior to administration of the new dose level on Days 3, 5, and 7, and on Day 9.

Beagle dogs [4] = assay: Phase 2, continuous intravenous infusion at the MTD for 6 additional days; format: in vivo, dog
Method: Following confirmation of the MTD (2788 mg/kg/day), the dogs were then transferred to Phase 2 of the study, and the dosing administration was resumed at the MTD for 6 additional days of continuous infusion as indicated in Table 16 below.
Following completion of the additional 6 days of continuous infusion and collection of the last toxicokinetic blood samples, all animals were euthanized and subjected to a necropsy examination on Day 8. Histological examination was performed on the liver and kidneys of all animals.

HMEC-1 = assay: Histone-induced calcium flux in endothelial cells; format: cell-based, human; conditions: mCBS 100 μg ml−1, histones 100 μg ml−1
Method: Calcium flux studies in endothelial cells. HMEC-1 (2×10^7 ml^−1) in RPMI-1640 medium were incubated with Indo-1 AM (5 μM)(ThermoFisher) at 37° C. for 60 min. […] The cell suspension was kept on ice and used within 3 h. Intracellular Ca^2+ flux was monitored using flow cytometry. The cells were pre-equilibrated and maintained at 37° C. during analysis using an external sheath connected to a heated water bath. After the exclusion of cellular debris and clumped cells (on the basis of FSC/SSC light scattering) the basal Ca^2+ level was monitored for 2 min before histone addition in the presence/absence of novel compounds. Ca^2+ levels were measured at 1, 4 and 10 min post-histone addition with a constant flow rate (˜300 events/sec). Ca^2+ flux was determined as an increase in the ratio of geometric mean fluorescence intensity (GMFI) of Ca^2+-bound over Ca^2+-unbound Indo-1.

[5] = IV bolus 100 mg/kg as sodium salt
[6] = animals treated with 1394 mg/kg/day (free base)

SMILES: CO[C@@H]1O[C@H](COS(=O)(=O)O)[C@@H](O[C@@H]2O[C@H](COS(=O)(=O)O)[C@@H](OS(=O)(=O)O)[C@H](OS(=O)(=O)O)[C@H]2OS(=O)(=O)O)[C@H](OS(=O)(=O)O)[C@H]1OS(=O)(=O)O [mCBS, β-O-methyl cellobioside sulfate]
- percent of total dose excreted in urine, mean (±SEM) ([1]; 0-4 h post-dosing): 52.0 (±5.0) %
- percent of total dose excreted in urine, mean (±SEM) ([1]; 0-24 h post-dosing): 65.0 (±7.0) %
- percent of total dose excreted in urine, mean (±SEM) ([1]; 0-48 h post-dosing): 69.2 (±10.8) %
- AUCinf [1, 5]: 135,000 ng·h/mL
- AUClast [1, 5]: 135,000 ng·h/mL
- distribution half-life [1, 5]: 0.65 h
- mean residence time (MRT) [1, 5]: 1.43 h
- terminal total body clearance (Cl) [1, 5]: 10.1 mL/min/kg
- volume of distribution (Vz) [1, 5]: 49.0 L/kg
- concentration at time zero (C0) ([1]; IV bolus 100 mg/kg as sodium salt (81.5 mg/kg free base), pooled mean plasma data, 6 rats): 308,000 ng/mL
- apparent terminal elimination half-life (T½) ([1]; IV bolus 100 mg/kg as sodium salt, 100 mg/kg): 56.1 h and ~56 h
- Cl, mean (±SEM) ([2]; Group 1, 25.3 mg/kg/h): 0.601 (±0.081) l/h/kg
- Css, mean (±SEM) ([2]; Group 1, 25.3 mg/kg/h): 58,400 (±6,920) ng/ml
- AUC 0-5 h infusion interval, mean (±SEM) ([2]; Group 1, IV infusion 25.3 mg/kg/h for 5 h): 260,000 (±30,200) ng·h/mL
- Cl, mean (±SEM) ([2]; Group 2, 50.6 mg/kg/h): 0.571 (±0.025)
- Css, mean (±SEM) ([2]; Group 2, 50.6 mg/kg/h): 120,000 (±5,560) ng/ml
- AUC 0-5 h infusion interval, mean (±SEM) ([2]; Group 2, IV infusion 50.6 mg/kg/h for 5 h): 532,000 (±25,500) ng·h/mL
- time of infusion to reach steady state plasma level (Css) ([2]; IV infusion): 2 h
- Css and AUC at 50 mg/kg/hr compared to 25 mg/kg/hr ([2]; IV infusion 5 h): 2 fold
- APTT (coagulation test) ([2]; rats treated with the higher dose): higher APTT score compared to the reference range
- AUC5-96 h and Css versus dose (Sprague-Dawley rats; 1394-5575 mg/kg/day): increased linearly with dose
- plasma concentration versus time (Sprague-Dawley rats; 5 h to 96 h (or 168 h) infusion interval): steady state concentrations of mCBS were maintained
- liver microscopic findings (Sprague-Dawley rats; [6]): accumulation of foamy Kupffer cells
- lymph node microscopic findings (Sprague-Dawley rats; [6]): accumulation of foam macrophages
- liver microscopic findings (Sprague-Dawley rats; animals treated with 2178 mg/kg/day (free base)): single cell necrosis
- liver microscopic findings (Sprague-Dawley rats; animals treated with 2178 and 5575 mg/kg/day): focal or multiple focal necrosis
- spleen microscopic findings (Sprague-Dawley rats; animals treated with ≤1394 mg/kg/day (so in the source), free base): accumulation of foamy macrophages associated with increased apoptotic cells in the red pulp
- kidney microscopic findings (Sprague-Dawley rats; animals treated with ≤2178 mg/kg/day (so in the source), free base): proximal tubular vacuolation/rarefaction
- urea, total protein and albumin (Sprague-Dawley rats; both sexes at 5575 mg/kg/day): increase in urea and decreases in total protein and albumin
- white blood cell lines (Sprague-Dawley rats; both sexes at doses ≤3484 mg/kg/day (so in the source)): Increases in white blood cell lines
- body weight gain and food consumption (Sprague-Dawley rats; both sexes, 5575 mg/kg/day (free base)): Decreases in body weight gain
- No Observable Adverse Effect Level (NOAEL) (Sprague-Dawley rats; free base, corrected for potency and salt content, continuous IV infusion 7 days): 1394 mg/kg/day
- red blood cell parameters and reticulocytes (Sprague-Dawley rats; males at 5575 mg/kg/day): decreases in red blood cell counts, hemoglobin, hematocrit, mean corpuscular volume and mean corpuscular hemoglobin concentration as well as increases in the reticulocytes
- activated partial thromboplastin time (Sprague-Dawley rats; males at doses 2178 mg/kg/day, females at doses ≤3484 mg/kg/day (so in the source)): Increases in activated partial thromboplastin time
- Liver enzymes (ALT, AST), cholesterol and triglycerides (Sprague-Dawley rats; males dosed at 5575 mg/kg/day): increased
- steady-state plasma concentration (Css) at the highest dose level (Beagle dogs [3]; 2788 mg/kg/day): higher than 300 μg/mL
- maximum tolerated dose (MTD) (Beagle dogs [3]; continuous (24 hours/day) IV infusion for 48 hours, free base corrected dose): 2788 mg/kg/day
- dose-limiting toxicity (adverse clinical sign) (Beagle dogs [3]; stepwise administration up to 2788 mg/kg/day): No dose-limiting toxicity
- tolerability (Beagle dogs [4]; 2788 mg/kg/day continuous IV infusion): well tolerated
- t1/2 after end of infusion (Beagle dogs [4]; 2788 mg/kg/day, both animals): approximately 1 hour
- histone-induced Ca2+ flux (HMEC-1): substantially inhibited the response
